Among the test systems are ACHN renal; MDA-MB-435; RXF 393 renal; CCRF-CEM leukemia; SF-268 CNS; BT-549 breast; SK-MEL-28 melanoma; NCI-H460 lung; COLO 205 colon; HOP-92 NSCLC; NCI-H226 lung; CAKI-1 renal; HS 578T breast; SW-620 colon; HCT-15 colon; NCI/ADR-RES ovarian; SNB-19 CNS; EKVX NSCLC; K-562 leukemia; TK-10 renal.
Assay in all cases: inhibition of tumour cell growth, NCI panel, 48 h

The source of these data is PubChem BioAssay (NCI).

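Protocol summary: plate cells (96-well), add compound at 5 concentrations, incubate 48 h, interpolate endpoints linearly. The concentration for full growth arrest is given as TGI.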

Turning to `O=[N+]([O-])c1ccccc1S(=O)(=O)c1cccc2c1NCCC2`, the TGI with ACHN renal, in the assay with MDA-MB-435, in the assay on RXF 393 renal, in the assay with CCRF-CEM leukemia, in the assay on SF-268 CNS and in the assay with BT-549 breast was above 100 µM throughout. For the same compound, the TGI with SK-MEL-28 melanoma, with NCI-H460 lung, in the assay on COLO 205 colon, in the assay with HOP-92 NSCLC, in the assay on NCI-H226 lung and in the assay on CAKI-1 renal was above 100 µM each time. The TGI in the assay on HS 578T breast, in the assay on SW-620 colon, in the assay with HCT-15 colon, in the assay with NCI/ADR-RES ovarian, in the assay on SNB-19 CNS and in the assay with EKVX NSCLC was above 100 µM in each case. In addition, the TGI in the assay on K-562 leukemia and in the assay on TK-10 renal was above 100 µM throughout.
Turning to `O=C(NCCc1ccccn1)c1ccc2cc(C(=O)N3CC(CCl)c4ccc([N+](=O)[O-])cc43)[nH]c2c1` (configuration not stated), the TGI with ACHN renal was above 100 µM; in the assay with MDA-MB-435 it was above 100 µM; in the assay with RXF 393 renal it was 60.3 µM; with CCRF-CEM leukemia, above 100 µM; with SF-268 CNS, above 100 µM; in the assay on BT-549 breast, above 100 µM. In addition, the TGI in the assay on SK-MEL-28 melanoma is above 100 µM; in the assay on NCI-H460 lung it was above 100 µM; with COLO 205 colon, above 100 µM; in the assay with HOP-92 NSCLC, 52.1 µM; with NCI-H226 lung it was above 100 µM; in the assay with CAKI-1 renal, above 52.7 µM. Besides, the TGI was above 100 µM with HS 578T breast; above 100 µM with SW-620 colon; above 100 µM with HCT-15 colon; above 100 µM with NCI/ADR-RES ovarian; 87.5 µM in the assay on SNB-19 CNS; above 100 µM in the assay with EKVX NSCLC. Further, the TGI in the assay on K-562 leukemia was above 100 µM; in the assay with TK-10 renal it was 66.7 µM.
For the compound `COC(=O)C1=C(C)NC(CF)=C(C(=O)OC)C1c1cccc2c(=O)c3ccccc3oc12` (configuration not stated), the TGI in the assay on ACHN renal was above 100 µM; in the assay on MDA-MB-435, above 100 µM; with RXF 393 renal, above 100 µM; with CCRF-CEM leukemia, above 100 µM; in the assay with SF-268 CNS, 63.6 µM; in the assay with BT-549 breast, above 100 µM. Also, the TGI with SK-MEL-28 melanoma is above 100 µM; with NCI-H460 lung it was above 100 µM; with COLO 205 colon, 22.8 µM; in the assay on HOP-92 NSCLC it was 35.3 µM; in the assay with NCI-H226 lung, above 100 µM; in the assay with CAKI-1 renal it was 62.3 µM. Further, the TGI was above 100 µM with HS 578T breast; above 100 µM with SW-620 colon; above 100 µM with HCT-15 colon; 27.8 µM in the assay on NCI/ADR-RES ovarian; above 100 µM with EKVX NSCLC; above 100 µM in the assay on K-562 leukemia. This compound displayed a TGI in the assay with TK-10 renal above 100 µM.
As for `COC(=O)c1ccccc1C1CN=NC12Cc1cc3c(cc1C2=O)CCC3` (configuration not stated), the TGI in the assay on ACHN renal, in the assay with MDA-MB-435, in the assay on RXF 393 renal, in the assay on CCRF-CEM leukemia, with SF-268 CNS and in the assay with BT-549 breast was above 100 µM each time. The TGI with SK-MEL-28 melanoma, with NCI-H460 lung, in the assay with COLO 205 colon, with HOP-92 NSCLC, in the assay on NCI-H226 lung and with CAKI-1 renal was above 100 µM throughout. Moreover, the TGI in the assay on HS 578T breast, in the assay with SW-620 colon, with HCT-15 colon, in the assay with NCI/ADR-RES ovarian, with SNB-19 CNS and in the assay with EKVX NSCLC was above 100 µM each time. Also, the TGI in the assay with K-562 leukemia and in the assay on TK-10 renal was above 100 µM each time.
With `CC(NC1=NCCO1)c1ccsc1` (configuration not stated), the TGI in the assay with ACHN renal is above 100 µM; in the assay on MDA-MB-435 it was 43.1 µM; in the assay with RXF 393 renal, 85.8 µM; in the assay on CCRF-CEM leukemia, 46.5 µM; in the assay with BT-549 breast, above 100 µM; in the assay with SK-MEL-28 melanoma, 43 µM. Further, the TGI with NCI-H460 lung was 33.2 µM; in the assay with COLO 205 colon, 35.3 µM; in the assay on HOP-92 NSCLC it was 92.5 µM; with NCI-H226 lung, above 100 µM; with CAKI-1 renal, above 100 µM; with HS 578T breast it was 33.9 µM. For the same compound, the TGI is 43.9 µM in the assay on SW-620 colon; above 100 µM in the assay on HCT-15 colon; above 100 µM in the assay with NCI/ADR-RES ovarian; above 100 µM in the assay with SNB-19 CNS; above 100 µM in the assay on EKVX NSCLC; 68 µM with K-562 leukemia. For the same compound, the TGI in the assay with TK-10 renal is above 100 µM.
`O=[N+]([O-])c1ccc(C2Nn3c(nnc3-c3cccc([N+](=O)[O-])c3)S2)cc1` (configuration not stated): the TGI with ACHN renal, in the assay with MDA-MB-435, in the assay on RXF 393 renal, with CCRF-CEM leukemia, in the assay on SF-268 CNS and with BT-549 breast was above 100 µM throughout. Also, the TGI with NCI-H460 lung, in the assay on COLO 205 colon, with HOP-92 NSCLC, with NCI-H226 lung, in the assay with CAKI-1 renal and with HS 578T breast was above 100 µM throughout. The TGI in the assay with SW-620 colon, with HCT-15 colon, with NCI/ADR-RES ovarian, in the assay with SNB-19 CNS, in the assay with EKVX NSCLC and in the assay on K-562 leukemia was above 100 µM throughout. Moreover, the TGI in the assay on TK-10 renal was above 100 µM.
